Reference: patent publication US20260022142A1, “MACROCYCLIC IMMUNOMODULATORS” (Bristol-Myers Squibb Company, priority 2022, published 2026)
Numbered stars: 1 amine (or outer) side, 2 acyl side, 3 side chain; on linkers, the order of the positions; unused ones are H or OH. Bridge positions count the residues as written; N and C are the ends. Square brackets hold non-standard residues; d marks the D form. Peptide text beside a SMILES is read from it. * marks the point of attachment. Bip = N[C@@H](Cc1ccc(-c2ccccc2)cc1)C(=O)O; Phe(3-Me) = Cc1cccc(C[C@H](N)C(=O)O)c1; X6 = O=C(Cc1ccc(CN[*:1])cc1)[*:2]; 4Pal = N[C@@H](Cc1ccncc1)C(=O)O; Cha = N[C@@H](CC1CCCCC1)C(=O)O; Cit = NC(=O)NCCC[C@H](N)C(=O)O; Carboxymethyl = O=C(O)C*; Orn = NCCC[C@H](N)C(=O)O; Aun = NCCCCCCCCCCC(=O)O; Dab = NCC[C@H](N)C(=O)O; Dap = NC[C@H](N)C(=O)O; AEEA = NCCOCCOCC(=O)O; Ac3c = NC1(C(=O)O)CC1

Target: T1, PD-1/PD-L1 interaction (PE-labeled human PD-L1-Ig binding to Jurkat cell line over-expressing human PD-1) (Homo sapiens, UniProt Q15116)
T1 construct: expressed in transfected cells; host or cells: Jurkat
Assay: Jurkat-PD-1 Cell Binding High-Content Screening Assay (CBA)
Type: cell-based
Conditions: Jurkat cell line over-expressing human PD-1; PE-labeled PD-L1-Ig 20 nM final; read-out: Jurkat hPD1-PDL1 IC50
Procedure, shortened: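 Binding of fluorescent PD-L1-Ig (phycoerythrin on Ig tag, 20 nM final, 1 h) measured by high-content imaging of fixed, Hoechst-counterstained Jurkat-hPD-1 cells. Compound added 2 h at 37° C beforehand, in DMEM with 10% fetal calf serum.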

T1 sequence (Q15116 25-288): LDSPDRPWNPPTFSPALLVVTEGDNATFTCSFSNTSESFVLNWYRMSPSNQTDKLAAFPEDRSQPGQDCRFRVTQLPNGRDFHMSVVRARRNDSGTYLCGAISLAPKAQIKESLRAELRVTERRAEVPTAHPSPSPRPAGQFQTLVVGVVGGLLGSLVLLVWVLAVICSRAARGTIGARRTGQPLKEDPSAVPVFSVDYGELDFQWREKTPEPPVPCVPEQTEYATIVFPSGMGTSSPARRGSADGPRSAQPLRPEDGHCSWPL

Going from Cc1cccc(C[C@@H]2NC(=O)[C@H](CC(=O)O)NC(=O)[C@H](Cc3ccc(OCC(=O)O)cc3)NC(=O)[C@H](CN)NC(=O)CSC[C@@H](C(=O)NCc3ccc(CC(=O)N[C@@H](CCN)C(=O)NCCCCCCCCCCC(=O)O)cc3)NC(=O)[C@H](CN)NC(=O)[C@H](C(C)C)NC(=O)[C@H](CC3CCCCC3)NC(=O)[C@H](CCN)NC(=O)[C@@H](CC(C)C)NC(=O)[C@H](CCCN)NC(=O)[C@H](C(C)C)NC(=O)[C@H](Cc3ccc(-c4ccccc4)cc3)NC(=O)[C@H](C(C)C)NC2=O)c1 [Compound 2003] ({CH2CO}-[Dap]Y(Carboxymethyl)D[Phe(3-Me)]V[Bip]V[Orn][dL][Dab][Cha]V[Dap]C[X6][Dab][Aun]-OH; thioether N-14) to Cc1cccc(C[C@@H]2NC(=O)[C@H](CC(=O)O)NC(=O)[C@H](Cc3ccc(OCC(=O)O)cc3)NC(=O)[C@H](CN)NC(=O)CSC[C@@H](C(=O)NCc3ccc(CC(=O)N[C@@H](CCCCN)C(=O)NCCCCCCCCCCC(=O)O)cc3)NC(=O)[C@H](CN)NC(=O)[C@H](C(C)C)NC(=O)[C@H](CC3CCCCC3)NC(=O)[C@H](CCN)NC(=O)[C@@H](CC(C)C)NC(=O)[C@H](CCCN)NC(=O)[C@H](C(C)C)NC(=O)[C@H](Cc3ccc(-c4ccccc4)cc3)NC(=O)[C@H](C(C)C)NC2=O)c1 [Compound 2011] ({CH2CO}-[Dap]Y(Carboxymethyl)D[Phe(3-Me)]V[Bip]V[Orn][dL][Dab][Cha]V[Dap]C[X6]K[Aun]-OH; thioether N-14), the IC50 falls from 136 nM to 24.8 nM (5.5-fold). The second is the more potent here.

Going from Cc1cccc(C[C@@H]2NC(=O)[C@H](CC(=O)O)NC(=O)[C@H](Cc3ccc(OCC(=O)O)cc3)NC(=O)[C@H](CN)NC(=O)CSC[C@@H](C(=O)N[C@@H](CCCN)C(=O)NCc3ccc(CC(=O)NCCCCCCCCCCC(=O)O)cc3)NC(=O)[C@H](CN)NC(=O)[C@H](C(C)C)NC(=O)[C@H](CC3CCCCC3)NC(=O)[C@H](CCN)NC(=O)[C@@H](CC(C)C)NC(=O)[C@H](CCCN)NC(=O)[C@H](C(C)C)NC(=O)[C@H](Cc3ccc(-c4ccccc4)cc3)NC(=O)[C@H](C(C)C)NC2=O)c1 [Compound 2004] ({CH2CO}-[Dap]Y(Carboxymethyl)D[Phe(3-Me)]V[Bip]V[Orn][dL][Dab][Cha]V[Dap]C[Orn][X6][Aun]-OH; thioether N-14) to Cc1cccc(C[C@@H]2NC(=O)[C@H](CC(=O)O)NC(=O)[C@H](Cc3ccc(OCC(=O)O)cc3)NC(=O)[C@H](CN)NC(=O)CSC[C@@H](C(=O)N[C@@H](CCCCN)C(=O)NCc3ccc(CC(=O)NCCCCCCCCCCC(=O)O)cc3)NC(=O)[C@H](CN)NC(=O)[C@H](C(C)C)NC(=O)[C@H](CC3CCCCC3)NC(=O)[C@H](CCN)NC(=O)[C@@H](CC(C)C)NC(=O)[C@H](CCCN)NC(=O)[C@H](C(C)C)NC(=O)[C@H](Cc3ccc(-c4ccccc4)cc3)NC(=O)[C@H](C(C)C)NC2=O)c1 [Compound 2012] ({CH2CO}-[Dap]Y(Carboxymethyl)D[Phe(3-Me)]V[Bip]V[Orn][dL][Dab][Cha]V[Dap]CK[X6][Aun]-OH; thioether N-14), the IC50 rises from 18.6 nM to 46 nM (2.5-fold). The first is the more potent here.

First: CC[C@H](C)[C@@H]1NC(=O)[C@H](Cc2ccc(-c3ccccc3)cc2)NC(=O)[C@H](C(C)C)NC(=O)[C@H](Cc2c[nH]c3ccccc23)NC(=O)[C@H](CC(=O)O)NC(=O)[C@H](Cc2ccc(OCC(=O)O)cc2)NC(=O)[C@H](Cc2ccncc2)NC(=O)CSC[C@@H](C(=O)N[C@@H](CCCN)C(=O)NCCOCCOCC(=O)NC2(C(=O)NCCCCCCCCCCC(=O)O)CC2)NC(=O)[C@H]([C@@H](C)O)NC(=O)[C@H](C(C)C)NC(=O)[C@H](CC(C)C)NC(=O)[C@H](CCN)NC(=O)[C@@H](CC(C)C)NC(=O)[C@H](CCCN)NC1=O [Compound 2005] ({CH2CO}-[4Pal]Y(Carboxymethyl)DWV[Bip]I[Orn][dL][Dab]LVTC[Orn][AEEA][Ac3c][Aun]-OH; thioether N-14)
Second: CC[C@H](C)[C@@H]1NC(=O)[C@H](Cc2ccc(-c3ccccc3)cc2)NC(=O)[C@H](C(C)C)NC(=O)[C@H](Cc2c[nH]c3ccccc23)NC(=O)[C@H](CC(=O)O)NC(=O)[C@H](Cc2ccc(OCC(=O)O)cc2)NC(=O)[C@H](Cc2ccncc2)NC(=O)CSC[C@@H](C(=O)N[C@@H](CCCN)C(=O)NCCOCCOCC(=O)NC2(C(=O)NCCCCCCCCCCC(=O)O)CC2)NC(=O)[C@H](CN)NC(=O)[C@H](C(C)C)NC(=O)[C@H](CC(C)C)NC(=O)[C@H](CCN)NC(=O)[C@@H](CC(C)C)NC(=O)[C@H](CCCN)NC1=O [Compound 2006] ({CH2CO}-[4Pal]Y(Carboxymethyl)DWV[Bip]I[Orn][dL][Dab]LV[Dap]C[Orn][AEEA][Ac3c][Aun]-OH; thioether N-14)
The IC50 of the first is 1.5-fold higher: 11.6 nM for the first, 7.7 nM for the second. The second is the more potent here.

Cc1cccc(C[C@@H]2NC(=O)[C@H](CC(=O)O)NC(=O)[C@H](Cc3ccc(OCC(=O)O)cc3)NC(=O)[C@H](CN)NC(=O)CSC[C@@H](C(=O)N[C@@H](C)C(=O)N[C@@H](CCCN)C(=O)NCC(=O)NCCCCCCCCCCC(=O)O)NC(=O)[C@H]([C@@H](C)O)NC(=O)[C@H](C(C)C)NC(=O)[C@H](CC3CCCCC3)NC(=O)[C@H](CCN)NC(=O)[C@@H](CC(C)C)NC(=O)[C@H](CCCN)NC(=O)[C@H](CCCNC(=N)N)NC(=O)[C@H](Cc3ccc(-c4ccccc4)cc3)NC(=O)[C@H](C(C)C)NC2=O)c1 [Compound 2007] ({CH2CO}-[Dap]Y(Carboxymethyl)D[Phe(3-Me)]V[Bip]R[Orn][dL][Dab][Cha]VTCA[Orn]G[Aun]-OH; thioether N-14) and Cc1cccc(C[C@@H]2NC(=O)[C@H](CC(=O)O)NC(=O)[C@H](Cc3ccc(OCC(=O)O)cc3)NC(=O)[C@H](CN)NC(=O)CSC[C@@H](C(=O)N[C@@H](C)C(=O)N[C@@H](CCCN)C(=O)N[C@H](CO)C(=O)NCCCCCCCCCCC(=O)O)NC(=O)[C@H]([C@@H](C)O)NC(=O)[C@H](C(C)C)NC(=O)[C@H](CC3CCCCC3)NC(=O)[C@H](CCN)NC(=O)[C@@H](CC(C)C)NC(=O)[C@H](CCCN)NC(=O)[C@H](CCCNC(=N)N)NC(=O)[C@H](Cc3ccc(-c4ccccc4)cc3)NC(=O)[C@H](C(C)C)NC2=O)c1 [Compound 2016] ({CH2CO}-[Dap]Y(Carboxymethyl)D[Phe(3-Me)]V[Bip]R[Orn][dL][Dab][Cha]VTCA[Orn][dS][Aun]-OH; thioether N-14) are within 1.5-fold of each other in IC50: 13.7 nM for the first, 17.6 nM for the second.

Cc1cccc(C[C@@H]2NC(=O)[C@H](CC(=O)O)NC(=O)[C@H](Cc3ccc(OCC(=O)O)cc3)NC(=O)[C@H](CN)NC(=O)CSC[C@@H](C(=O)N[C@@H](CCCCN)C(=O)NCCCCCCCCCCC(=O)O)NC(=O)[C@@H](CO)NC(=O)[C@H](C(C)C)NC(=O)[C@H](CC(C)C)NC(=O)[C@H](CCN)NC(=O)[C@@H](CC(C)C)NC(=O)[C@H](CCCN)NC(=O)[C@H](C(C)C)NC(=O)[C@H](Cc3ccc(-c4ccccc4)cc3)NC(=O)[C@H](C(C)C)NC2=O)c1 [Compound 2009] ({CH2CO}-[Dap]Y(Carboxymethyl)D[Phe(3-Me)]V[Bip]V[Orn][dL][Dab]LV[dS]CK[Aun]-OH; thioether N-14) and Cc1cccc(C[C@@H]2NC(=O)[C@H](CC(=O)O)NC(=O)[C@H](Cc3ccc(OCC(=O)O)cc3)NC(=O)[C@H](CN)NC(=O)CSC[C@@H](C(=O)NC3(C(=O)NCCCCCCCCCCC(=O)O)CC3)NC(=O)[C@H]([C@@H](C)O)NC(=O)[C@H](C(C)C)NC(=O)[C@H](CC3CCCCC3)NC(=O)[C@H](CCN)NC(=O)[C@@H](CC(C)C)NC(=O)[C@H](CCCN)NC(=O)[C@H](CCCNC(N)=O)NC(=O)[C@H](Cc3ccc(-c4ccccc4)cc3)NC(=O)[C@H](C(C)C)NC2=O)c1 [Compound 2010] ({CH2CO}-[Dap]Y(Carboxymethyl)D[Phe(3-Me)]V[Bip][Cit][Orn][dL][Dab][Cha]VTC[Ac3c][Aun]-OH; thioether N-14) are within 1.5-fold of each other in IC50: 17.2 nM for the first, 15.3 nM for the second.

Compared with CC[C@H](C)[C@@H]1NC(=O)[C@H](Cc2ccc(-c3ccccc3)cc2)NC(=O)[C@H](C(C)C)NC(=O)[C@H](Cc2c[nH]c3ccccc23)NC(=O)[C@H](CC(=O)O)NC(=O)[C@H](Cc2ccc(OCC(=O)O)cc2)NC(=O)[C@H](Cc2ccncc2)NC(=O)CSC[C@@H](C(=O)N[C@@H](CCCN)C(=O)NCCOCCOCC(=O)NCc2ccc(CC(=O)NCCCCCCCCCCC(=O)O)cc2)NC(=O)[C@H](CN)NC(=O)[C@H](C(C)C)NC(=O)[C@H](CC(C)C)NC(=O)[C@H](CCN)NC(=O)[C@@H](CC(C)C)NC(=O)[C@H](CCCN)NC1=O [Compound 2014] ({CH2CO}-[4Pal]Y(Carboxymethyl)DWV[Bip]I[Orn][dL][Dab]LV[Dap]C[Orn][AEEA][X6][Aun]-OH; thioether N-14), Cc1cccc(C[C@@H]2NC(=O)[C@H](CC(=O)O)NC(=O)[C@H](Cc3ccc(OCC(=O)O)cc3)NC(=O)[C@H](CN)NC(=O)CSC[C@@H](C(=O)N[C@@H](CCN)C(=O)NCCOCCOCC(=O)NCCCCCCCCCCC(=O)O)NC(=O)[C@@H](CO)NC(=O)[C@H](C(C)C)NC(=O)[C@H](CC3CCCCC3)NC(=O)[C@H](CCN)NC(=O)[C@@H](CC(C)C)NC(=O)[C@H](CCCN)NC(=O)[C@H](C(C)C)NC(=O)[C@H](Cc3ccc(-c4ccccc4)cc3)NC(=O)[C@H](Cc3ccc(O)cc3)NC2=O)c1 [Compound 2017] ({CH2CO}-[Dap]Y(Carboxymethyl)D[Phe(3-Me)]Y[Bip]V[Orn][dL][Dab][Cha]V[dS]C[Dab][AEEA][Aun]-OH; thioether N-14) is 1.7-fold lower in IC50: 33 nM for the first, 19.3 nM for the second.

For Cc1cccc(C[C@@H]2NC(=O)[C@H](CC(=O)O)NC(=O)[C@H](Cc3ccc(OCC(=O)O)cc3)NC(=O)[C@H](CN)NC(=O)CSC[C@@H](C(=O)NC3(C(=O)N[C@@H](CCCN)C(=O)N[C@H](CO)C(=O)NCCCCCCCCCCC(=O)O)CC3)NC(=O)[C@H]([C@@H](C)O)NC(=O)[C@H](C(C)C)NC(=O)[C@H](CC3CCCCC3)NC(=O)[C@H](CCN)NC(=O)[C@@H](CC(C)C)NC(=O)[C@H](CCCN)NC(=O)[C@H](CCCNC(N)=O)NC(=O)[C@H](Cc3ccc(-c4ccccc4)cc3)NC(=O)[C@H](C(C)C)NC2=O)c1 [Compound 2015] ({CH2CO}-[Dap]Y(Carboxymethyl)D[Phe(3-Me)]V[Bip][Cit][Orn][dL][Dab][Cha]VTC[Ac3c][Orn][dS][Aun]-OH; thioether N-14), the IC50 was 19.8 nM.
